Tests used:
Test in all cases: relative viability (nuclei count vs DMSO), 5 days (fraction); higher = more cells survive
BAM7 + Luminespib = compound: CCOC1=CC=CC=C1N=NC2=C(NN(C2=O)C3=NC(=CS3)C4=CC=CC=C4)C [BAM7] + CCNC(=O)c1noc(-c2cc(C(C)C)c(O)cc2O)c1-c1ccc(CN2CCOCC2)cc1 [Luminespib] (partner 0.01 µM)
Method in brief: (§1)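 Relative viability is defined as nuclei in treated wells over nuclei in vehicle wells. Duplicate plates were run and medians reported. Lung cancer cell lines in 1536-well plates were dosed by pin tool one day after seeding, with one drug or with a fixed anchor-drug dose plus five library-drug doses (not always all listed) in √10 steps, and nuclei were counted after 5 days.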

BAM7 + Olaparib = compound: CCOC1=CC=CC=C1N=NC2=C(NN(C2=O)C3=NC(=CS3)C4=CC=CC=C4)C [BAM7] + O=C(c1cc(Cc2n[nH]c(=O)c3ccccc23)ccc1F)N1CCN(C(=O)C2CC2)CC1 [Olaparib] (partner 8 µM)
Method in brief: as §1

[1] = compound: CCn1c(-c2nonc2N)nc2c(C#CC(C)(C)O)ncc(OC[C@H]3CCCNC3)c21 + C[C@]1(O)C[C@@H](c2nc(-c3ccc4ccc(-c5ccccc5)nc4c3)c3c(N)nccn32)C1 [Linsitinib] (partner 1 µM)
Method in brief: as §1

[2] = compound: CCn1c(-c2nonc2N)nc2c(C#CC(C)(C)O)ncc(OC[C@H]3CCCNC3)c21 + Nc1ncn([C@H]2C[C@H](O)[C@@H](CO)O2)c(=O)n1 [Decitabine] (partner 2 µM)
Method in brief: as §1

| Cell Line | relative viability (BAM7 + Luminespib; first compound 0.5 µM) | relative viability (BAM7 + Luminespib; first compound 5 µM) | relative viability (BAM7 + Luminespib; first compound 15.81 µM) | relative viability (BAM7 + Luminespib; first compound 50 µM) | relative viability (BAM7 + Olaparib; first compound 0.5 µM) | relative viability (BAM7 + Olaparib; first compound 5 µM) | relative viability (BAM7 + Olaparib; first compound 15.81 µM) | relative viability (BAM7 + Olaparib; first compound 50 µM) | relative viability ([1]; first compound 0.01 µM) | relative viability ([1]; first compound 0.03162 µM) | relative viability ([1]; first compound 0.1 µM) | relative viability ([1]; first compound 0.3162 µM) | relative viability ([1]; first compound 1 µM) | relative viability ([2]; first compound 0.01 µM) | relative viability ([2]; first compound 0.03162 µM) | relative viability ([2]; first compound 0.1 µM) | relative viability ([2]; first compound 0.3162 µM) | relative viability ([2]; first compound 1 µM) |
| --- | --- | --- | --- | --- | --- | --- | --- | --- | --- | --- | --- | --- | --- | --- | --- | --- | --- | --- |
| NCI-H1355 | 0.697 | 0.754 | 0.637 | 0.707 | 0.753 | 0.725 | 0.679 | 0.718 | 0.899 | 0.804 | 0.877 | 0.685 | 0.869 | 0.339 | 0.346 | 0.385 | 0.324 | 0.355 |
| NCI-H1395 | 0.713 | 0.929 | 0.514 | 0.673 | 0.492 | 0.472 | 0.445 | 0.425 | 0.997 | 0.972 | 1.12 | 1 | 0.904 | 0.819 | 0.735 | 0.742 | 0.583 | 0.677 |
| NCI-H1437 | 1.16 | 1.13 | 1.12 | 1.09 | 0.557 | 0.546 | 0.526 | 0.492 | 0.948 | 1.05 | 1.04 | 1.01 | 0.956 | 0.558 | 0.541 | 0.564 | 0.611 | 0.627 |
| NCI-H1651 | 0.761 | 0.836 | 0.853 | 0.734 | 0.192 | 0.202 | 0.198 | 0.175 | 0.926 | 0.941 | 0.919 | 0.871 | 0.958 | 0.582 | 0.608 | 0.652 | 0.597 | 0.663 |
| NCI-H1666 | 1 | 0.953 | 1.03 | 1.03 | 0.818 | 0.727 | 0.752 | 0.781 | 0.805 | 0.92 | 0.928 | 0.732 | 0.738 | 0.71 | 0.657 | 0.809 | 0.834 | 0.735 |
| NCI-H1734 | 0.215 | 0.202 | 0.171 | 0.211 | 0.57 | 0.664 | 0.599 | 0.609 | 0.872 | 0.879 | 0.782 | 0.817 | 0.884 | 0.453 | 0.496 | 0.546 | 0.465 | 0.484 |
| NCI-H1755 | 0.431 | 0.495 | 0.525 | 0.524 | 0.858 | 0.939 | 0.858 | 0.899 | 1.04 | 1.02 | 1 | 0.954 | 1.01 | 0.727 | 0.753 | 0.673 | 0.669 | 0.722 |
| NCI-H1792 | 0.501 | 0.46 | 0.421 | 0.509 | 0.42 | 0.374 | 0.391 | 0.425 | 0.523 | 0.567 | 0.464 | 0.491 | 0.461 | 0.558 | 0.499 | 0.547 | 0.419 | 0.518 |
| NCI-H1793 | 0.172 | 0.153 | 0.201 | 0.17 | 0.926 | 0.882 | 0.791 | 0.95 | 0.761 | 0.835 | 0.756 | 0.851 | 0.806 | 0.478 | 0.522 |  | 0.534 | 0.503 |
| NCI-H1915 | 0.769 | 0.886 | 0.833 | 0.76 | 0.269 | 0.262 | 0.223 | 0.259 | 1.08 | 1.1 | 1.05 | 1.12 | 1.08 | 0.254 | 0.252 | 0.258 | 0.248 | 0.248 |
| NCI-H1944 | 0.762 | 0.789 | 0.617 | 0.855 | 0.345 | 0.391 | 0.326 | 0.436 | 1.15 | 1.17 | 1.21 | 1.21 | 1.21 | 0.443 | 0.415 | 0.45 | 0.446 | 0.448 |
| NCI-H1975 | 0.206 | 0.219 | 0.209 | 0.189 | 0.498 | 0.617 | 0.393 | 0.602 | 0.887 | 1.02 | 0.913 | 0.791 | 0.86 | 0.428 | 0.382 | 0.378 | 0.409 | 0.359 |
| NCI-H1993 | 0.81 | 0.869 | 0.744 | 0.702 | 0.955 | 1.08 | 0.888 | 0.98 | 0.774 | 0.736 | 0.758 | 0.731 | 0.767 | 0.534 | 0.643 | 0.599 | 0.63 | 0.677 |
| NCI-H2009 | 1.05 | 1.06 | 1.04 | 0.979 | 0.716 | 0.727 | 0.662 | 0.663 | 1.15 | 1.19 | 1.27 | 1.1 | 1.19 | 0.35 | 0.469 | 0.354 | 0.342 | 0.39 |
| NCI-H2023 | 0.939 | 0.613 | 0.586 | 0.721 | 0.475 | 0.45 | 0.363 | 0.387 | 0.683 | 0.664 | 0.708 | 0.446 | 0.569 | 0.207 | 0.202 | 0.221 | 0.245 | 0.236 |
| NCI-H2085 | 0.436 | 0.376 | 0.503 | 0.372 | 0.83 | 0.804 | 0.785 | 0.786 | 0.843 | 0.91 | 0.804 | 0.879 | 0.921 | 0.489 | 0.517 | 0.601 | 0.58 | 0.556 |
| NCI-H2087 | 0.183 | 0.216 | 0.18 | 0.172 | 0.683 | 0.685 | 0.559 | 0.456 | 0.966 | 0.746 | 0.932 | 0.924 | 0.838 | 0.327 |  | 0.283 | 0.208 | 0.326 |
| NCI-H2126 | 0.891 | 0.86 | 0.76 | 0.954 | 0.892 | 0.877 | 0.905 | 0.92 | 0.751 | 0.716 | 0.695 | 0.671 | 0.788 | 0.505 | 0.608 | 0.583 | 0.54 | 0.548 |
| NCI-H2347 | 0.592 | 0.416 |  | 0.516 | 0.588 | 0.642 | 0.625 | 0.601 | 1.05 | 0.983 | 0.958 | 0.904 | 0.991 | 0.603 | 0.575 | 0.616 | 0.577 | 0.605 |
| NCI-H2405 | 0.868 | 0.77 | 0.824 | 0.68 | 0.936 | 0.936 | 0.889 | 0.908 | 0.924 | 1.06 |  | 0.794 | 1.02 | 0.782 | 0.75 | 0.721 | 0.692 | 0.647 |
| NCI-H3122 | 0.0898 | 0.13 | 0.0656 | 0.0782 | 0.428 | 0.579 | 0.416 | 0.53 | 1.05 | 0.944 | 0.972 | 1.01 | 1.03 | 0.499 | 0.364 | 0.427 | 0.436 | 0.414 |
| PC-3 [JPC-3] | 0.683 | 0.771 | 0.612 | 0.636 | 1.12 | 1.1 | 1.06 | 0.995 | 0.959 | 0.933 | 0.98 | 0.927 | 0.932 | 0.832 |  | 0.836 | 0.769 | 0.78 |
| PC-14 | 0.208 | 0.16 | 0.152 | 0.143 | 0.305 | 0.216 | 0.161 | 0.234 | 0.967 | 0.975 | 0.963 | 0.849 | 0.919 | 0.25 | 0.2 | 0.222 | 0.197 | 0.29 |
| RERF-LC-KJ | 1.19 | 0.93 | 0.726 | 0.759 | 0.346 | 0.3 | 0.288 | 0.304 | 0.91 | 0.871 | 0.855 | 0.856 | 0.903 | 0.694 | 0.643 | 0.684 | 0.59 | 0.656 |
| SK-LU-1 | 0.217 | 0.18 | 0.2 | 0.186 | 0.463 | 0.542 | 0.444 | 0.55 | 1.06 | 1.23 | 1.22 | 1.19 | 1.09 | 0.669 | 0.639 | 0.75 | 0.611 | 0.574 |
| SK-MES-1 | 0.877 | 0.805 | 0.621 | 0.798 | 0.82 | 0.703 | 0.613 | 0.704 | 1.07 | 1.11 | 1.05 | 1.03 | 1 | 0.329 | 0.397 | 0.399 | 0.353 | 0.378 |
| SW 1573 | 0.356 | 0.168 | 0.417 | 0.229 | 0.574 | 0.583 | 0.461 | 0.46 | 0.827 | 0.793 | 0.81 | 0.7 | 0.772 | 0.462 | 0.388 | 0.448 | 0.42 | 0.337 |

Source: the supplement of paper PMC10307832
